Measured values from ChEMBL document CHEMBL5620406, “Synthesis and biological evaluation of novel pyrazole amides as potent mitochondrial complex I inhibitors” (Eur J Med Chem, 2023).
Calls of active or inactive are those of the source. No cut-off for these calls is given here.

Legend:
HCT-116 [1] = experiment: Induction of ROS generation in human HCT-116 cells measured for 30 mins by DCFDA-staining based flow cytometry analysis; format: functional, cell-based; conditions: dose <= 0.5 nM
[2] = Toxicity in NOD-SCID mouse xenografted with human KG-1 cells assessed as effect on kidney damage at 5 mg/kg, ip qd administered 5 consecutive days per week for 24 days by H and E staining based analysis; format: organism-based; conditions: in vivo, 576 h, time 24 day
[3] = Toxicity in NOD-SCID mouse xenografted with human KG-1 cells assessed as effect on RDV at 5 mg/kg, ip qd administered 5 consecutive days per week for 24 days; format: organism-based; conditions: in vivo, 576 h, time 24 day
[4] = Toxicity in NOD-SCID mouse xenografted with human KG-1 cells assessed as effect on PLT level at 5 mg/kg, ip qd administered 5 consecutive days per week for 24 days; format: organism-based; conditions: in vivo, 576 h, time 24 day
[5] = Acute toxicity in BALB/c mouse assessed as heart damage at 40 to 68 mg/kg, ip measured on day 14 by H and E staining based analysis; format: organism-based; conditions: in vivo, 336 h, dose 40-68 mg/kg, time 14 day
[6] = Toxicity in NOD-SCID mouse xenografted with human KG-1 cells assessed as effect on WBC count at 5 mg/kg, ip qd administered 5 consecutive days per week for 24 days; format: organism-based; conditions: in vivo, 576 h, time 24 day
[7] = Toxicity in NOD-SCID mouse xenografted with human KG-1 cells assessed as effect on spleen damage at 5 mg/kg, ip qd administered 5 consecutive days per week for 24 days by H and E staining based analysis; format: organism-based; conditions: in vivo, 576 h, time 24 day
[8] = Acute toxicity in BALB/c mouse assessed as effect on WBC level at 68 mg/kg, ip measured on day 14; format: organism-based; conditions: in vivo, 336 h, time 14 day
[9] = Toxicity in NOD-SCID mouse xenografted with human KG-1 cells assessed as effect on ALP level at 5 mg/kg, ip qd administered 5 consecutive days per week for 24 days; format: organism-based; conditions: in vivo, 576 h, time 24 day
[10] = Toxicity in NOD-SCID mouse xenografted with human KG-1 cells assessed as change in body weight at 5 mg/kg, ip qd administered 5 consecutive days per week for 24 days; format: organism-based; conditions: in vivo, 576 h, time 24 day
[11] = Toxicity in NOD-SCID mouse xenografted with human KG-1 cells assessed as effect on MCH level at 5 mg/kg, ip qd administered 5 consecutive days per week for 24 days; format: organism-based; conditions: in vivo, 576 h, time 24 day
[12] = Efflux ratio of apparent permeability across basolateral to apical membrane to apical to basolateral membrane in human Caco-2 cells incubated for 120 mins by LC-MS/MS analysis; format: ADME, cell-based
HCT-116 [13] = experiment: Induction of mitochondrial dysfunction in human HCT-116 cells assessed as attenuation of oxygen consumption rate incubated for 24 hrs by Seahorse XFe24 analyzer; format: functional, cell-based; conditions: dose 2-10 nM
[14] = Toxicity in NOD-SCID mouse xenografted with human KG-1 cells assessed as effect on UA level at 5 mg/kg, ip qd administered 5 consecutive days per week for 24 days; format: organism-based; conditions: in vivo, 576 h, time 24 day
[15] = Toxicity in NOD-SCID mouse xenografted with human KG-1 cells assessed as effect on LDL level at 5 mg/kg, ip qd administered 5 consecutive days per week for 24 days; format: organism-based; conditions: in vivo, 576 h, time 24 day
[16] = Toxicity in NOD-SCID mouse xenografted with human KG-1 cells assessed as effect on hematocrit level at 5 mg/kg, ip qd administered 5 consecutive days per week for 24 days; format: organism-based; conditions: in vivo, 576 h, time 24 day
[17] = Acute toxicity in BALB/c mouse assessed as effect on RBC level at 68 mg/kg, ip measured on day 14; format: organism-based, Erythrocyte; conditions: in vivo, 336 h, time 14 day
[18] = Acute toxicity in ip dosed BALB/c mouse assessed as maximum tolerated dose measured on day 14; format: organism-based; conditions: in vivo, time 14 day
[19] = Apparent permeability across basolateral side to apical in human Caco-2 cells incubated for 120 mins by LC-MS/MS analysis; format: ADME, cell-based
HCT-116 [20] = experiment: Induction of mitochondrial dysfunction in human HCT-116 cells assessed as inhibition of OXPHOS at 2 to 10 nM incubated for 24 hrs by Seahorse XFe24 analyzer; format: functional, cell-based; conditions: dose 2-10 nM
HCT-116 [21] = experiment: Induction of mitochondrial dysfunction in human HCT-116 cells assessed as attenuation of maximum oxygen consumption rate incubated for 24 hrs by Seahorse XFe24 analyzer; format: functional, cell-based; conditions: dose 2-10 nM
[22] = Acute toxicity in BALB/c mouse assessed as effect on GLU level at 68 mg/kg, ip measured on day 14; format: organism-based; conditions: in vivo, 336 h, time 14 day
[23] = Acute toxicity in BALB/c mouse assessed as effect on BILT level at 68 mg/kg, ip measured on day 14; format: organism-based; conditions: in vivo, 336 h, time 14 day
KG-1 [24] = experiment: Antitumor activity against human KG-1 cells xenografted in NOD-SCID mouse assessed as tumor growth inhibition at 5 mg/kg, ip qd administered 5 consecutive days per week for 24 days; format: functional; conditions: KG-1, 576 h, time 24 day, read-out: TGI
[25] = Acute toxicity in BALB/c mouse assessed as decrease in body weight at 68 mg/kg, ip measured for 6 days; format: organism-based; conditions: in vivo, 144 h, time 6 day
[26] = Acute toxicity in BALB/c mouse assessed as spleen damage at 40 to 68 mg/kg, ip measured on day 14 by H and E staining based analysis; format: organism-based; conditions: in vivo, 336 h, dose 40-68 mg/kg, time 14 day
HCT-116 [27] = experiment: Antiproliferative activity against human HCT-116 cells assessed as inhibition of cell growth at 0.1 nM incubated for 96 hrs in presence of galactose by MTT assay; format: functional, cell-based
KG-1 [28] = experiment: Induction of ROS generation in human KG-1 cells at 1 nM measured for 30 mins by DCFDA-staining based flow cytometry analysis; format: functional, cell-based
HCT-116 [29] = experiment: Antiproliferative activity against human HCT-116 cells assessed as inhibition of cell growth incubated for 96 hrs by MTT assay; format: functional, cell-based; conditions: HCT-116, 96 h
[30] = Acute toxicity in BALB/c mouse assessed as effect on ALB level at 68 mg/kg, ip measured on day 14; format: organism-based; conditions: in vivo, 336 h, time 14 day
[31] = Toxicity in NOD-SCID mouse xenografted with human KG-1 cells assessed as effect on CREA level at 5 mg/kg, ip qd administered 5 consecutive days per week for 24 days; format: organism-based; conditions: in vivo, 576 h, time 24 day
HCT-116 [32] = experiment: Induction of mitochondrial membrane potential depolarization in human HCT-116 cells at 2 nM incubated for 24 hrs by JC-1 staining based flow cytometry analysis; format: functional
[33] = Toxicity in NOD-SCID mouse xenografted with human KG-1 cells assessed as effect on lymphocyte count at 5 mg/kg, ip qd administered 5 consecutive days per week for 24 days; format: organism-based; conditions: in vivo, 576 h, time 24 day
HCT-116 [34] = experiment: Induction of ROS generation in human HCT-116 cells at 0.5 nM measured for 30 mins by DCFDA-staining based flow cytometry analysis; format: functional, cell-based
[35] = Toxicity in NOD-SCID mouse xenografted with human KG-1 cells assessed as effect on TP level at 5 mg/kg, ip qd administered 5 consecutive days per week for 24 days; format: organism-based; conditions: in vivo, 576 h, time 24 day
[36] = Toxicity in NOD-SCID mouse xenografted with human KG-1 cells assessed as effect on liver damage at 5 mg/kg, ip qd administered 5 consecutive days per week for 24 days by H and E staining based analysis; format: organism-based; conditions: in vivo, 576 h, time 24 day
[37] = Inhibition of mitochondrial complex I (unknown origin) incubated for 15 mins by microplate reader analysis; design: species or system Homo sapiens

SMILES	Activity (HCT-116 [1])	Activity [2]	Activity [3]	Activity [4]	Activity [5]	Activity [6]	Activity [7]	Activity [8]	Activity [9]	Activity [10]	Activity [11]	efflux ratio at 2 h [12]	Activity (HCT-116 [13])	Activity [14]	Activity [15]	Activity [16]	Activity [17]	MTD at 336 h [18]	Papp B→A at 2 h [19]	Activity (HCT-116 [20])	other results
Cc1cc(C(=O)Nc2ccc(OC(F)(F)F)cc2)nn1Cc1cccc(N2CCN(C(=O)C3CC3)CC2)c1	Dose-Dependent Effect	Non-Toxic	Non-Toxic	Non-Toxic	Non-Toxic	Non-Toxic	Non-Toxic	Non-Toxic	Non-Toxic	Non-Toxic	Non-Toxic	0.57	Dose-Dependent Effect	Non-Toxic	Non-Toxic	Non-Toxic	Non-Toxic	~6 mg/kg	32.5 nm/s	Active	Activity (HCT-116 [21]): Dose-Dependent Effect; Activity [22]: Non-Toxic; Activity [23]: Non-Toxic; inhibition in vivo at 5 mg/kg (KG-1 [24]): 61.5%; Activity [25]: Non-Toxic; Activity [26]: Non-Toxic; Activity (HCT-116 [27]): Active; Activity (KG-1 [28]): Active; IC50 (HCT-116 [29]): 0.00102 µM; Activity [30]: Non-Toxic; Activity [31]: Non-Toxic; Activity (HCT-116 [32]): 34.3%; Activity [33]: Non-Toxic; Activity (HCT-116 [34]): Active; Activity [35]: Non-Toxic; Activity [36]: Non-Toxic; IC50 [37]: 1.14 µM
Cc1cc(C(=O)Nc2ccc(C(F)(F)F)cc2)nn1Cc1cccc(N2CCN(C(=O)C3CC3)CC2)c1	Dose-Dependent Effect	Non-Toxic	Non-Toxic	Non-Toxic	Non-Toxic	Non-Toxic	Non-Toxic	Non-Toxic	Non-Toxic	Non-Toxic	Non-Toxic	0.53	Dose-Dependent Effect	Non-Toxic	Non-Toxic	Non-Toxic	Non-Toxic	~6 mg/kg	30.8 nm/s	Active	Activity (HCT-116 [21]): Dose-Dependent Effect; Activity [22]: Non-Toxic; Activity [23]: Non-Toxic; inhibition in vivo at 5 mg/kg (KG-1 [24]): 65.9%; Activity [25]: Non-Toxic; Activity [26]: Non-Toxic; Activity (HCT-116 [27]): Active; Activity (KG-1 [28]): Active; IC50 (HCT-116 [29]): 0.00052 µM; Activity [30]: Non-Toxic; Activity [31]: Non-Toxic; Activity (HCT-116 [32]): 26.5%; Activity [33]: Non-Toxic; Activity (HCT-116 [34]): Active; Activity [35]: Non-Toxic; Activity [36]: Non-Toxic; IC50 [37]: 0.83 µM
